Where no end group is shown, it is not given here.
What was measured:
Caco-2 cells = assay: Caco-2 permeability assay (bi-directional); settings: for Papp Rep 1 / Papp Rep 2 / Papp Mean: 120 min, pH 7.4
Procedure: (§1) Cells were seeded on to Millipore Multiscreen Transwell plates at 1×10^5 cells/cm^2. The cells were cultured in DMEM and media was changed every two or three days. On day 20, the permeability study was performed. […] On the day of the assay, the monolayers were prepared by rinsing both basolateral and apical surfaces twice with Hanks Balanced Salt Solution (HBSS) at the desired pH warmed to 37° C. Cells were then incubated with HBSS at the desired pH in both apical and basolateral compartments for 40 min to stabilise physiological parameters.
(§2) The fluorescent integrity marker lucifer yellow was also included in the dosing solution. Analytical standards were prepared from test compound water dilutions and transferred to buffer, maintaining a ≤1% v/v water concentration. Assay buffer was composed of supplemented HBSS pH 7.4.
(§3) For assessment of apical to basolateral (A2B) permeability, HBSS was removed from the apical compartment and replaced with test compound dosing solution. The apical compartment insert was then placed into a companion plate containing fresh buffer (containing ≤1% v/v Water). For assessment of B2A permeability, HBSS was removed from the companion plate and replaced with test compound dosing solution. Fresh buffer (containing ≤1% v/v Water) was added to the apical compartment insert, which was then placed into the companion plate.
(§4) At 120 min, the apical compartment inserts and the companion plates were separated, and apical and basolateral samples diluted for analysis. Test compound permeability was assessed in duplicate. Compounds of known permeability characteristics were run as controls on each assay plate.
(§5) Test and control compounds were quantified by LC-MS/MS cassette analysis using a 7-point calibration with appropriate dilution of the samples. Cyprotex generic analytical conditions were used. The starting concentration (CO) was determined from the dosing solution and the experimental recovery calculated from CO and both apical and basolateral compartment concentrations.
(§6) The integrity of the polarised cell monolayers throughout the experiment was checked by monitoring lucifer yellow permeation using fluorometric analysis. Permeation of this paracellular marker is low if monolayers have not been damaged. […] If this was not the case, then the result from the affected monolayer was excluded.
(§7) The determined concentration (nM≡pmol/mL) of each test sample receiver well is multiplied by the volume of the receiver compartment (apical=0.09 mL, basolateral=0.210 mL) to calculate the amount (pmol) of probe substrate permeating the monolayer.
(§8) Where dQ/dt is the rate of permeation of the drug across the cells, C0 is the donor compartment concentration at time zero and A is the area of the cell monolayer. C0 was obtained from analysis of the dosing solution.
(§9) An efflux ratio (ER) was calculated from mean A to B and B to A data. This is derived from:
(§10) Percentage recovery (mass balance) of the test compound or positive control substrate was calculated by dividing the sum of the amount (pmol) in the receiver and donor compartments post-incubation by the amount in the initial donor solution at time zero (C0) and expressing as a percentage.
(§11) The insert was inserted into the well of a plate to form an Apical chamber (above cells) and basolateral chamber (below cells), with a permeable membrane between the two layers. Compound was then added to either the apical or basolateral chamber and the passage of it monitored into the other chamber. Transfer of the test compound from the apical to basolateral chamber was indicative of cellular uptake, simulating transition of the compound from the intestinal lumen to the bloodstream by uptake receptors (Direction A). […] An Efflux ratio was then calculated from the values obtained for A2B and B2A transmission.

[1] = Caco-2 permeability assay (bi-directional); settings: human; for recovery at 120 min / recovery at 120 min, 100 μM: Caco-2, pH 7.4, Mean % Recovery; for recovery at 120 min: positive control
Procedure: as §1, §2, §3, §4, §5, §6, §7, §8, §9, §10, §11

[2] = known characteristic of control compound; cited from earlier work
[3] = tested on: Neonatal rat cardiomyocytes; assay: Screening synthetic peptides for alterations to rat cardiomyocyte beat rates; format: cell-based
Procedure: (§12) The baseline beat rate of neonatal rat and human IPSC-derived cardiomyocytes to be treated with the three synthetic fractions were determined by video microscopy of each well in triplicate using a microscope camera. Average beats/min were calculated from the triplicate readings of three separate wells (n=9). Aliquots of each peptide were taken to treat neonatal rat cardiomyocyte cells at doses of 100, 10, 1 and 0.1 μg/ml. Cells were returned to a humidified incubator at 37° C., 5% CO2 for 2 h. After 2 h the beat rate of the treated cardiomyocyte cells was reassessed using the same method used to obtain the pre-dosing beat data. This process was repeated 24 h after the addition of the synthetic peptides.

[4] = tested on: Neonatal rat cardiomyocytes; assay: Screening synthetic peptides for thermal stability (rat cardiomyocyte beat rate after heating at 100° C.); format: cell-based; settings: peptide heated to 100° C.
Procedure: Thermal stability of the three designed synthetics peptides was investigated. The baseline beat rate of neonatal rat cardiomyocytes to be treated with the synthetic fractions were determined by video microscopy of each well in triplicate using a microscope camera. Average beats/min were calculated from the triplicate readings of three separate wells (n=9). Aliquots of each peptide were heated in a heat block at 100° C. before being used to treat rodent cardiomyocyte cells at doses of 100, 10, 1 and 0.1 μg/ml. Cells were returned to the incubator at 37° C., 5% CO2 for 2 h. After 2 h the beat rate of the treated cardiomyocyte cells was reassessed using the same method used to obtain the pre-dosing beat data. This process was repeated 24 h after the addition of the synthetic peptides. The data of the fold changes in cardiomyocyte beat rate following treatment with the heated synthetic fractions were compared to previously obtains fold-changes in beat rate of the unheated synthetic peptides to assess their thermal stability.

[5] = tested on: Human IPSC-derived cardiomyocytes; assay: Screening synthetic peptides for alterations to human IPSC-derived cardiomyocyte beat rates; format: cell-based; settings: 2 h; dose not stated in the sentence (no increase at 0.1, 1 and 10 μg/ml)
Procedure: as §12

Cc1cc(=O)n(-c2ccccc2)n1C [Antipyrine, antipyrine]
Papp Rep 1 (Caco-2 cells; A2B, positive control): 47.2 ×10^−6 cms^−1 | Papp Rep 2 (Caco-2 cells; A2B, positive control): 46.9 ×10^−6 cms^−1 | Papp Rep 1 (Caco-2 cells; B2A, positive control): 38.0 ×10^−6 cms^−1 | Papp Rep 2 (Caco-2 cells; B2A, positive control): 41.1 ×10^−6 cms^−1 | Papp A→B at 120 min ([1]; Caco-2, pH 7.4): 47.1 ×10⁻⁶ cm/s | Papp B→A at 120 min ([1]; Caco-2, pH 7.4): 39.6 ×10⁻⁶ cm/s | efflux ratio at 120 min ([1]; Caco-2, pH 7.4): 0.84 | recovery at 120 min ([1]; A2B): 90.5% | recovery at 120 min ([1]; B2A): 87.8% | human absorption [2]: 97%

LKCHKLIPIAWKTK [Synthetic peptide 3]
fold-increases to beat rate, rat cardiomyocytes ([3]; 100 μg/ml, 2 h): three-fold | peak increases in rat neonatal cardiomyocyte beat rates ([3]; peak over 0.1-100 μg/ml): 3 fold | increases to beat rate, rat cardiomyocytes ([3]; three lower tested concentrations, 2 h): around two-fold | maximum fold-increase to beat rate following heating [4]: 2.5 fold

LKCHKLVPPVWKT [Synthetic peptide 1]
increase to the beat rate of human cardiomyocytes over pre-dosing beat rate [5]: 1.5 fold | toxicity to the Caco-2 cells (lucifer yellow monolayer integrity) (Caco-2 cells; 100 μM): not observed | transporter substrate assessment from the efflux ratio (Caco-2 cells; 100 μM, efflux ratio 0.137): not a substrate for efflux transporters but could be a possible substrate for uptake transporters | Papp Mean (Caco-2 cells; A2B, 100 μM): 4.60 ×10^−6 cms^−1 | Papp Rep 1 (Caco-2 cells; A2B, 100 μM): 6.48 ×10^−6 cms^−1 | Papp Rep 2 (Caco-2 cells; A2B, 100 μM): 2.73 ×10^−6 cms^−1 | Papp Mean (Caco-2 cells; B2A, 100 μM): 0.633 ×10^−6 cms^−1 | Papp Rep 1 (Caco-2 cells; B2A, 100 μM): 0.681 ×10^−6 cms^−1 | Papp Rep 2 (Caco-2 cells; B2A, 100 μM): 0.584 ×10^−6 cms^−1 | efflux ratio at 120 min, 100 μM ([1]; Caco-2, pH 7.4): 0.137 | recovery at 120 min, 100 μM ([1]; A2B): 45.5% | recovery at 120 min, 100 μM ([1]; B2A): 96.6%

From US20250204535A1, “Rodenticide” (priority 2022, published 2025)
